Reference: patent publication US4481141A, “Nondiffusible yellow metallized azo dye-releasing compounds” (Eastman Kodak Company, priority 1983, dated 1984)
“Also recorded” adds a separate entry of the source.

Tests used:
Format in all cases: physicochemical
[1] = Dye solution spectra of Ni-dye complexes (Table I); conditions: 3:1 dioxane:water, pH 7, excess nickel ion
Text: (§1) The receiver was removed from the dye solution, washed in distilled water, placed in a pH 7.0 buffer solution and dried. Transmission spectra obtained on each sample of the mordanted dyes were normalized by computer to a density of 1.0. The characteristic wavelength of the dye, λ1/2 in nm, is the mean of the wavelength limits of the absorption envelope at half the maximum density. The HBW ("half band width") in nm is the range or distance between those limits. The dye solution spectrum in 3:1 dioxane:water at pH 7 in the presence of excess nickel ion is also given.

[2] = Transmission spectra of mordanted dyes on receiving element (Table I); conditions: unmetallized dye; nickel sulfate layer/poly(4-vinylpyridine) mordant receiver; pH 7.0
Experimental: (§2) A receiving element was prepared comprising a poly(ethylene terephthalate) film support having thereon a nickel sulfate hexahydrate (0.58 g/m^2)/gelatin (1.08 g/m^2) metal complexing layer, and a poly(4-vinylpyridine)/gelatin mordant layer (each at 2.15 g/m^2), which forms metal complexes with the unmetallized dyes. […]
as §1

[3] = Light stability of mordanted dyes (HID fade, Table I); conditions: unmetallized dye; nickel layer/poly(4-vinylpyridine) receiver; 10 days HID, 50,000 lux, 38° C., pH 7
Experimental: as §2
The above receiving elements at pH 7 were then subjected to 10 days irradiation by a high intensity daylight (HID), 6000 W Xenon arc lamp, the sample receiving 50,000 lux through a Wratten 2B (ultraviolet) filter at approximately 38° C. and low humidity. The percent fade represents the loss in density at λmax after irradiation.

[4] = Dye diffusion, solution test; conditions: 0.0025M dye, pH 13.4
Text: (§3) The released dyes in Table I were also subjected to the conditions of two different dye diffusion tests. One, the "solution test" involved dissolving the dye in a viscous composition and transferring it through a receiving element which contains an opaque and reflecting layer in addition to the mordant layer. The other, a "gel pad test" involved imbibing the dye from solution into a thick gelatin layer, and then transferring it by direct lamination to the same receiving element which had been preswollen by soaking 5 minutes in a solution of 0.1 potassium hydroxide. The receiver for these tests had the following composition (coverages are parenthetically given in g/m^2):
(§4) A transparent poly(ethylene terephthalate) film support coated with
(§5) (1) a mordant layer of poly(styrene-co-N-vinylbenzyl-N-benzyl-N,N-dimethylammonium chloride-co-divinylbenzene) (2.28) and gelatin (2.28);
(§6) (2) an opaque and reflecting layer of carbon black (1.88) in gelatin (1.23) and titanium dioxide (16.1) in gelatin (2.63); and
(§7) (3) an overcoat layer of gelatin (4.3).
Approximately 0.075 mmol of the released dye was dissolved in 10 ml of 0.125N potassium hydroxide. After the dye was completely dissolved, 20 ml of a viscous composition was added; and the resulting solution, stirred for at least 20 minutes, was 0.0025M in dye at a pH of 13.4. The viscous composition was prepared from 46.2 g potassium hydroxide and 54 g carboxymethylcellulose dissolved in 1200 ml water. […] Measurement of the rate of dye diffusion was commenced at the point at which half of the laminate had passed through the rollers. The appearance of dye on the mordant was measured at λmax as diffuse reflection density vs. time. The reflection density was converted to transmission density by computer with the aid of a mathematical relation derived from a previous calibration. A plot of transmission density, which is proportional to concentration vs. time, was derived; and the value of t-1/2 of dye transfer, the time in seconds required to obtain one-half of the maximum transmission density, calculated.

[5] = Comparison with prior art: absorption in dioxane/water with and without nickel ions
Experimental: In U.S. Pat. No. 4,148,643, Compound J in column 32 is the nickel complex of the following dye compound: [drawing 20] The nickel-dye complex is listed as having a λmax of 462 nm and a half-band width of 76 nm when adsorbed to a cationic polymeric mordant on a film strip. A 1:1 dioxane/water mixture at a pH of 7.0 of this nickel-dye complex was prepared. It absorbed at 444 nm in the presence of excess nickel ions and 402 nm in the absence of nickel ions.
In Table I, Compound C has the following structure: [drawing 21] The compound has a quinoline nitrogen chelating group instead of a hydroxyl chelating group as in Compound J of the '643 patent. A 1:1 dioxane/water mixture at a pH of 7.0 of the above Compound C was prepared. It absorbed at 452 nm in the presence of excess nickel ions and at 387 nm in the absence of nickel ions.

[6] = Dye diffusion, gel pad test
Text: as §3, §4, §5, §6, §7
A donor element, containing a thick pad of deionized acid-processed gelatin (26 g/m^2) hardened with 2 percent bis(vinylsulfonylmethyl)ether, was imbibed with a solution of 0.1M in potassium hydroxide and 1.3×10^-3 M in dye. […]

[7] = Stability of dye:nickel complex under gel pad transfer conditions; conditions: after gel pad diffusion test
Experimental: A donor element, containing a thick pad of deionized acid-processed gelatin (26 g/m^2) hardened with 2 percent bis(vinylsulfonylmethyl)ether, was imbibed with a solution of 0.1M in potassium hydroxide and 1.3×10^-3 M in dye. The pad was soaked to full penetration, surface wiped, and then laminated in direct contact to the above receiving element which had been presoaked for 5 minutes at 0.1M KOH. The t-1/2 of dye transfer was obtained as in the solution test. The diffusion times by the "gel pad test" are substantially longer than by the "solution test".
When the unmetallized dye ligand of Compound J of the '643 patent and the 1:1 complex thereof were subjected to the gel pad diffusion test as described in Example 1, the values obtained were 66 sec. and 146 sec., respectively.

CC(O)=C(C#N)N=Nc1cccc2cccnc12 [A]
Spectra of Ni-Dye Complexes, Dye Solution, HBW (half band width) [1]: 68 nm | Spectra of Ni-Dye Complexes, Dye Solution, λ1/2 [1]: 431 nm

CC(O)=C(C#N)N=Nc1ccc(S(N)(=O)=O)c2cccnc12 [B]
Spectra of Ni-Dye Complexes, Dye Solution, HBW (half band width) [1]: 67 nm | Spectra of Ni-Dye Complexes, Dye Solution, λ1/2 [1]: 445 nm | Spectra of Ni-Dye Complexes, Mordant, HBW (half band width) [2]: 70 nm | Spectra of Ni-Dye Complexes, Mordant, λ1/2 [2]: 456 nm | % Fade (loss in density at λmax after irradiation) [3]: 1.5% | Dye Diffusion t1/2, Soln. [4]: 27 s

CC(O)=C(C#N)N=Nc1ccc(S(=O)(=O)Nc2cccc(S(N)(=O)=O)c2)c2cccnc12 [Compound C]
Spectra of Ni-Dye Complexes, Dye Solution, HBW (half band width) [1]: 70 nm | Spectra of Ni-Dye Complexes, Dye Solution, λ1/2 [1]: 448 nm | Spectra of Ni-Dye Complexes, Mordant, HBW (half band width) [2]: 74 nm | Spectra of Ni-Dye Complexes, Mordant, λ1/2 [2]: 457 nm | % Fade (loss in density at λmax after irradiation) [3]: 1.0% | Dye Diffusion t1/2, Soln. [4]: 37 s | nature/stability of dye:nickel complex from spectrum ([5]; 0.5 mol Ni^++, listed as Dye C): stable 2:1 complex of dye to metal; also recorded: much more stable 2:1 dye:nickel complex than compound J of the '643 patent | absorption wavelength in the presence of excess nickel ions ([5]; 1:1 dioxane/water, pH 7.0, excess nickel ions): 452 nm | absorption wavelength in the absence of nickel ions ([5]; 1:1 dioxane/water, pH 7.0, no nickel ions): 387 nm | spectrum at reduced nickel ion concentration ([5]; nickel ion at one-half the molar concentration of the dye): no change in the spectrum

CC(O)=C(C#N)N=Nc1ccc(S(=O)(=O)Nc2cccc(O)c2)c2cccnc12 [D]
Spectra of Ni-Dye Complexes, Dye Solution, HBW (half band width) [1]: 70 nm | Spectra of Ni-Dye Complexes, Dye Solution, λ1/2 [1]: 451 nm | Spectra of Ni-Dye Complexes, Mordant, HBW (half band width) [2]: 73 nm | Spectra of Ni-Dye Complexes, Mordant, λ1/2 [2]: 459 nm | % Fade (loss in density at λmax after irradiation) [3]: 8.0% | Dye Diffusion t1/2, Soln. [4]: 39 s

CC(C)(C)C(O)=C(C#N)N=Nc1ccc(S(N)(=O)=O)c2cccnc12 [E]
Spectra of Ni-Dye Complexes, Dye Solution, HBW (half band width) [1]: 72 nm | Spectra of Ni-Dye Complexes, Dye Solution, λ1/2 [1]: 445 nm | Spectra of Ni-Dye Complexes, Mordant, HBW (half band width) [2]: 69 nm | Spectra of Ni-Dye Complexes, Mordant, λ1/2 [2]: 456 nm | % Fade (loss in density at λmax after irradiation) [3]: 2.0% | Dye Diffusion t1/2, Soln. [4]: 29 s

N#CC(N=Nc1cccc2cccnc12)=C(O)c1ccccc1 [F]
Spectra of Ni-Dye Complexes, Dye Solution, HBW (half band width) [1]: 70 nm | Spectra of Ni-Dye Complexes, Dye Solution, λ1/2 [1]: 446 nm | Spectra of Ni-Dye Complexes, Mordant, HBW (half band width) [2]: 75 nm | Spectra of Ni-Dye Complexes, Mordant, λ1/2 [2]: 458 nm | % Fade (loss in density at λmax after irradiation) [3]: 2.0%

N#CC(N=Nc1ccc(S(N)(=O)=O)c2cccnc12)=C(O)c1ccccc1 [G]
Spectra of Ni-Dye Complexes, Dye Solution, HBW (half band width) [1]: 70 nm | Spectra of Ni-Dye Complexes, Dye Solution, λ1/2 [1]: 460 nm | Spectra of Ni-Dye Complexes, Mordant, HBW (half band width) [2]: 75 nm | Spectra of Ni-Dye Complexes, Mordant, λ1/2 [2]: 470 nm | % Fade (loss in density at λmax after irradiation) [3]: 1.0% | Dye Diffusion t1/2, Soln. [4]: 27 s

CC(C)(C)C(O)=C(C#N)N=Nc1ccc(S(=O)(=O)Nc2cccc(S(N)(=O)=O)c2)c2cccnc12 [H]
Spectra of Ni-Dye Complexes, Dye Solution, HBW (half band width) [1]: 70 nm | Spectra of Ni-Dye Complexes, Dye Solution, λ1/2 [1]: 450 nm | Spectra of Ni-Dye Complexes, Mordant, HBW (half band width) [2]: 79 nm | Spectra of Ni-Dye Complexes, Mordant, λ1/2 [2]: 455 nm | % Fade (loss in density at λmax after irradiation) [3]: 3.6% | Dye Diffusion t1/2, Soln. [4]: 40 s

CC(O)=C(C#N)N=Nc1ccc(S(=O)(=O)Nc2cccc(C(=O)O)c2)c2cccnc12 [I]
Spectra of Ni-Dye Complexes, Dye Solution, HBW (half band width) [1]: 68 nm | Spectra of Ni-Dye Complexes, Dye Solution, λ1/2 [1]: 451 nm | Spectra of Ni-Dye Complexes, Mordant, HBW (half band width) [2]: 77 nm | Spectra of Ni-Dye Complexes, Mordant, λ1/2 [2]: 455 nm | % Fade (loss in density at λmax after irradiation) [3]: 7.2% | Dye Diffusion t1/2, Soln. [4]: 34 s | Dye Diffusion t1/2, Gel Pad ([6]; gel pad test, 0.1M KOH, 1.3×10^-3 M dye): 127 s

O=c1c(N=Nc2cccc3cccnc23)c(O)n(-c2ccccc2)n1-c1ccccc1 [L]
Spectra of Ni-Dye Complexes, Dye Solution, HBW (half band width) [1]: 72 nm | Spectra of Ni-Dye Complexes, Dye Solution, λ1/2 [1]: 435 nm | Spectra of Ni-Dye Complexes, Mordant, HBW (half band width) [2]: 77 nm | Spectra of Ni-Dye Complexes, Mordant, λ1/2 [2]: 439 nm | % Fade (loss in density at λmax after irradiation) [3]: 1.0%

NS(=O)(=O)c1ccc(N=Nc2c(O)n(-c3ccccc3)n(-c3ccccc3)c2=O)c2ncccc12 [M]
Spectra of Ni-Dye Complexes, Dye Solution, HBW (half band width) [1]: 72 nm | Spectra of Ni-Dye Complexes, Dye Solution, λ1/2 [1]: 450 nm | Spectra of Ni-Dye Complexes, Mordant, HBW (half band width) [2]: 77 nm | Spectra of Ni-Dye Complexes, Mordant, λ1/2 [2]: 459 nm | % Fade (loss in density at λmax after irradiation) [3]: 1.0%

Cc1nn(-c2ccccc2)c(O)c1N=Nc1cccc2cccnc12 [N]
Spectra of Ni-Dye Complexes, Dye Solution, HBW (half band width) [1]: 102 nm | Spectra of Ni-Dye Complexes, Dye Solution, λ1/2 [1]: 444 nm | Spectra of Ni-Dye Complexes, Mordant, HBW (half band width) [2]: 116 nm | Spectra of Ni-Dye Complexes, Mordant, λ1/2 [2]: 447 nm | % Fade (loss in density at λmax after irradiation) [3]: 3.0%

O=c1oc2ccccc2c(O)c1N=Nc1cccc2cccnc12 [O]
Spectra of Ni-Dye Complexes, Dye Solution, HBW (half band width) [1]: 98 nm | Spectra of Ni-Dye Complexes, Dye Solution, λ1/2 [1]: 429 nm | Spectra of Ni-Dye Complexes, Mordant, HBW (half band width) [2]: 85 nm | Spectra of Ni-Dye Complexes, Mordant, λ1/2 [2]: 452 nm | % Fade (loss in density at λmax after irradiation) [3]: 0.0%

CC(O)=C(C#N)N=Nc1cc(S(N)(=O)=O)ccc1O [reference compound]
gel pad diffusion test value ([6]; gel pad diffusion test as in Example 1 (comparison with prior art)): 66 s | spectrum of the dye on the receiver after transfer [7]: showed the presence of the unmetallized dye only
